Data taken from patent US9375477B2 (GALDERMA RESEARCH & DEVELOPMENT, priority 2012, dated 2016).

Test: In vitro cutaneous penetration on human skin (Franz cell)
Type: in vitro ADME
Settings: 16 hours after application; the 3 formulae evaluated (Examples 2 and 9, reference gel)
Description: The cutaneous penetration studies performed on the formulations of the invention containing an active principle of the retinoid class were performed in vitro on whole human abdominal skin after excision, this skin being mounted on a Franz cell.
After topical application of a given amount of the formulation to the surface of the skin, the penetration of the active principle is measured 16 hours after application.
The amount of active principle of the retinoid class is measured in the various skin compartments: stratum corneum, epidermis, dermis and also in the receiving liquid.
The bioanalysis was carried out by positive electrospray ionization tandem mass spectrometry, and using a Xevo machine (Waters).
The quantification limit for compound A is 0.5 ng/mL. The LC/MS/MS conditions developed made it possible to detect up to 0.1% of the dose applied in each of the compartments (dose not absorbed, stratum, epidermis, dermis and receiving liquid). The appropriateness, accuracy and repeatability of the method were checked in each of the matrices, and made it possible to validate the bioanalysis method.
In this type of “single point” study, the parameters retained are: • a. the distribution profile in the various compartments (qualitative data) • b. the penetration into the epidermis+dermis compartment (numerical data)

Compound A in the receiving liquid: not detected
SMILES: CC(C)(C)c1cc(-c2cc(-c3ccc(C(=O)O)cc3)ccc2OCCO)ccc1N1CCCC1 [Compound A, 3″-tert-butyl-4′-(2-hydroxyethoxy)-4″-pyrrolidin-1-yl-[1,1′; 3′,1″]-terphenyl-4-carboxylic acid]
